# Source: US20240150368A1, “ULK INHIBITORS AND METHODS OF USE THEREOF” (Deciphera Pharmaceuticals, LLC, priority 2022, published 2024)
# System: ULK kinase substrate ATG13 (pS318-ATG13) in HCT-116 cells
# Test: pATG13 levels of mutant KRas HCT-116 cells after treatment with ULK inhibitors in combination with trametinib (ELISA)
# Type: cell-based, human
# Details: not given
# Protocol: pATG13 Levels of Mutant KRas HCT-116 Cells after Treatment with ULK Inhibitors in Combination with Trametinib
# HCT-116 human colon cancer cells (10000 cells/well) were added to a 384-well tissue-culture treated plate in 50 μL of pre-warmed DMEM medium supplemented with 10% characterized fetal bovine serum (Invitrogen, Carlsbad, CA), 100 units/mL penicillin G, and 100 μg/mL streptomycin and allowed to grow overnight at 37° C., 5% CO2, and 95% humidity. The following day, 10 μL of media containing trametinib or DMSO as a control was added to wells. The final concentration of trametinib in wells was 250 nM. A dose response of a test compound (0.6 μL per well) was added. DMSO (0.6 μL) was added to control wells. The plate was briefly shaken to mix wells and then incubated at 37° C. overnight. The next day, the media was aspirated and cells were washed with Dulbecco's Phosphate Buffered Saline (Gibco). Cells were lysed using MPER lysis buffer (Pierce, Rockford, IL) containing Halt Phosphatase and Protease Inhibitors (Pierce, Rockford, IL) and Phosphatase inhibitor cocktail 2 (Sigma, St. Louis, MO) at 4° C. for 10 minutes with shaking.
# (§1) Cellular levels of phospho-Serine 318 ATG13 (pATG13) were measured via an ELISA method. Total ATG13 Antibody (Cell Signaling Cat #13273) was used to coat the wells. The plate was incubated at 4° C. overnight and washed with ELISA wash buffer (Biolegend Cat #421601). The wells were then blocked with assay diluent (Biolegend Cat #421203) for 1 h at rt. Plate wells were washed with ELISA wash buffer. Cell lysate was added to wells and incubated at rt for 2 h. Plate wells were washed with ELISA wash buffer. Biotinylated pS318-ATG13 antibody (Rockland Immunochemicals Cat #600-401-C49) was diluted in assay diluent and added to each well and incubated at rt for 1 h. Plate wells were washed with ELISA wash buffer. Streptavidin linked to horseradish peroxidase (Thermo Fisher Cat #21140) was diluted in assay diluent and added to each well and incubated at rt for 1 h. Plate wells were washed with ELISA wash buffer. High sensitivity TMB substrate (Biolegend Cat #421101) was added to each well and incubated at rt for 20 minutes. The reaction was stopped with 2.0N sulfuric acid. The plate was analyzed at on a plate reader measuring absorbance at 450 nm and 540 nm (background). Signal was calculated by first subtracting the background absorbance at 540 nm from the absorbance at 450 nm for each well. Next, the background corrected absorbance at 450 nm from blank wells was subtracted from test wells. Data was compared to control wells to determine % ATG13 phosphorylation. GraphPad Prism was used to calculate IC50 values.
row,Structure (SMILES),IC50 [nM]
1,"CC/C(Nc1cnn(C2CCN(C(C)C)CC2)c1)=C1/C(=O)Nc2ccc(C(=O)NC[C@H]3CCCO3)cc21 [Example 1, (R,Z)-3-(1-((1-(1-isopropylpiperidin-4-yl)-1H-pyrazol-4-yl)amino)propylidene)-2-oxo-N-((tetrahydrofuran-2-yl)methyl)indoline-5-carboxamide]",≤ 100
2,CC/C(Nc1cnn(C2CCN(C(C)C)CC2)c1)=C1/C(=O)Nc2ccc(C(=O)NCCOC(F)(F)F)cc21 [Example 82],> 600
3,CC/C(Nc1cnn(C2CN(C)C2)c1)=C1/C(=O)Nc2ccc(C(=O)NCC(F)(F)F)cc21 [Example 86],≤ 100

# Now from value to molecule:
row,IC50 [nM],Structure (SMILES)
1,≤ 100,CC/C(Nc1ccc(N2CCN(C)CC2)cn1)=C1/C(=O)Nc2ccc(C(=O)NCC(F)(F)F)cc21 [Example 75]
2,≤ 100,CC/C(Nc1cnn(C)c1)=C1/C(=O)Nc2ccc(C(=O)NCC(F)(F)F)cc21 [Example 77]

# System: ULK kinase substrate ATG13 (pS318-ATG13) in T24 cells
# Test: pATG13 levels of mutant HRas T24 cells after treatment with ULK inhibitors in combination with trametinib (ELISA)
# Type: cell-based, human
# Details: in combination with trametinib 250 nM
# Protocol: pATG13 Levels of Mutant HRas T24 Cells after Treatment with ULK Inhibitors in Combination with Trametinib
# T24 human urinary bladder cancer cells (25000 cells/well) were added to a 96-well tissue-culture treated plate in 100 μL of pre-warmed DMEM medium supplemented with 10% characterized fetal bovine serum (Invitrogen, Carlsbad, CA), 100 units/mL penicillin G, and 100 μg/mL streptomycin and allowed to grow overnight at 37° C., 5% CO2, and 95% humidity. The following day, 100 μL of media containing trametinib or DMSO as a control was added to wells. The final concentration of trametinib in wells was 250 nM. A dose response of a test compound (0.5 μL per well) was added. DMSO (0.5 μL) was added to control wells. The plate was briefly shaken to mix wells and then incubated at 37° C. overnight. The next day, the media was aspirated and cells were washed with Dulbecco's Phosphate Buffered Saline (Gibco). Cells were lysed using MPER lysis buffer (Pierce, Rockford, IL) containing Halt Phosphatase and Protease Inhibitors (Pierce, Rockford, IL) and Phosphatase inhibitor cocktail 2 (Sigma, St. Louis, MO) at 4° C. for 10 min with shaking.
# as §1, with “min.” for “minutes.”
row,IC50 [nM],Structure (SMILES)
1,≤ 100,"CC/C(Nc1cnn(C2CCN(C(C)C)CC2)c1)=C1/C(=O)Nc2ccc(C(=O)NC[C@H]3CCCO3)cc21 [Example 1, (R,Z)-3-(1-((1-(1-isopropylpiperidin-4-yl)-1H-pyrazol-4-yl)amino)propylidene)-2-oxo-N-((tetrahydrofuran-2-yl)methyl)indoline-5-carboxamide]"
